We go through 17 molecules from patent US4886805A, “Novel aminoalkylthio derivatives of triazolopyridine or triazoloquinoline, the processes for their preparation, and drugs, useful especially as analgesics, in which they are present” (Centre D'Activite Et De Recherches Pharmaceutique …, priority 1986, dated 1989).

One experiment deals with pain reactions caused by phenylbenzoquinone. Put plainly: Siegmund test with phenylbenzoquinone (analgesic activity after oral administration). Format: in vivo, male mice, CD1 strain (Charles River). The following applies: Mus musculus, po, read-out: AD50 confidence limits.
Method: This method makes it possible to assess the analgesic activity of molecules having both a peripheral and a central action.
Male mice of the CD1 strain (Charles River) and OF1 strain (Iffa Credo), weighing from 19 to 22 g, were used for the Siegmund test and the Eddy test respectively. The tests were carried out at an ambient temperature of 21°±2° C.
The products were suspended in an aqueous mixture of 1% gum arabic, 0.1% sodium chloride and 0.001% Tween 80.
One hour after administration of the product studied, 0.20 to 0.22 ml of a 0.02% aqueous-alcoholic solution of phenylbenzoquinone is administered to the mice intraperitoneally.
The number of pain reactions (twists and stretches) is counted from the 5th to the 10th minute.
The products of the examples studied were administered to groups of 6 to 12 mice by gastric intubation (0.5 ml/20 g), one hour before phenylbenzoquinone, according to the following dosage schedule:
The percentage inhibition of pain manifestations was calculated from the mean numbers of twists per group.
The 50% active doses and their confidence limits were determined from the linear regression carried out on the parameters measured.
For `Cl.Cl.Fc1ccc(N2CCNCC2)c(F)c1` [Example 1, 4-(2,4-Difluorophenyl)piperazine dihydrochloride], the ED50 worked out at 2.16 mg/kg.
Still for that read-out and setting: to `Fc1ccc(C2=CCN(CCSc3nnc4ccccn34)CC2)cc1` [Example 45, 3-[2-(4-(4-Fluorophenyl)-1,2,3,6-tetrahydropyridin-1-yl)ethylmercapto]-1,2,4-triazolo(4,3-a)pyridine] belongs 33 mg/kg; to `Clc1ccc(C2=CCN(CCSc3nnc4ccccn34)CC2)cc1` [Example 48, 3-[2-(4-(4-Chlorophenyl)-1,2,3,6-tetrahydropyridin-1-yl)ethylmercapto]-1,2,4-triazolo(4,3-a)pyridine], 16.1 mg/kg.

The same experiment, now with this note: Mus musculus; 50% active dose with confidence limits; oral (gastric intubation), 1 hour before phenylbenzoquinone i.p.; twists and stretches counted 5th to 10th minute; mice; read-out: AD50 confidence limits.
With `FC(F)(F)c1cccc(N2CCN(CCSc3nnc4c(C(F)(F)F)cccn34)CC2)c1.O=C(O)/C=C\C(=O)O` [Example 24, 3-[2-(4-(3-Trifluoromethylphenyl)piperazin-1-yl)ethylmercapto]-8-trifluoromethyl-1,2,4-triazolo(4,3-a)pyridine maleate], the ED50 was determined as 4.53 mg/kg.
On the same count and under the same terms, to `Fc1ccc(N2CCN(CCSc3nnc4c(C(F)(F)F)cccn34)CC2)c(F)c1` [Example 28, 3-[2-(4-(2,4-Difluorophenyl)piperazin-1-yl)ethylmercapto]-8-trifluoromethyl-1,2,4-triazolo(4,3-a)pyridine] belongs 22.4 mg/kg.
For the molecule `Cc1ccc2nnc(SCCN3CCN(c4cccc(C(F)(F)F)c4)CC3)n2c1.Cl.Cl` [Example 31, 3-[2-(4-(3-Trifluoromethylphenyl)piperazin-1-yl)ethylmercapto]-6-methyl-1,2,4-triazolo(4,3-a)pyridine dihydrochloride], the ED50 worked out at 3.6 mg/kg.
In the case of `Fc1ccc(N2CCN(CCCSc3nnc4c(C(F)(F)F)cccn34)CC2)c(F)c1` [Example 32, 3-[3-(4-(2,4-Difluorophenyl)piperazin-1-yl)propylmercapto]-8-trifluoromethyl-1,2,4-triazolo(4,3-a)pyridine], the ED50 was found to be 12.6 mg/kg.
Still for that read-out and setting: then `FC(F)(F)c1cccc(N2CCN(CCSc3nnc4ccccn34)CC2)c1.O=C(O)/C=C\C(=O)O` [Example 33, 3-[2-(4-(3-Trifluoromethylphenyl)piperazin-1-yl)ethylmercapto]-1,2,4-triazolo(4,3-a)pyridine maleate], with 1.71 mg/kg; and `Cl.Cl.Fc1ccccc1N1CCN(CCSc2nnc3ccccn23)CC1` [Example 41, 3-[2-(4-(2-Fluorophenyl)piperazin-1-yl)ethylmercapto]-1,2,4-triazolo(4,3-a)pyridine dihydrochloride], with 3.19 mg/kg; and `Fc1ccc(N2CCN(CCCSc3nnc4ccccn34)CC2)c(F)c1` [Example 43, 3-[3-(4-(2,4-Difluorophenyl)piperazin-1-yl)propylmercapto]-1,2,4-triazolo(4,3-a)pyridine], with 13.9 mg/kg.
Same read-out and setting: to `Fc1ccc(N2CCN(CCSc3nnc4ccccn34)CC2)c(F)c1` [Example 44, 3-[2-(4-(2,4-Difluorophenyl)piperazin-1-yl)ethylmercapto]-1,2,4-triazolo(4,3-a)pyridine] belongs 11 mg/kg; to `Clc1cccc(N2CCN(CCSc3nnc4ccccn34)CC2)c1` [Example 49, 3-[2-(4-(3-Chlorophenyl)piperazin-1-yl)ethylmercapto]-1,2,4-triazolo(4,3-a)pyridine], 2.45 mg/kg.
On the same count and under the same terms, then `FC(F)(F)c1cccc(N2CCN(CCCSc3nnc4ccc5ccccc5n34)CC2)c1` [Example 57, 1-[3-(4-(3-Trifluoromethylphenyl)piperazin1-yl)propylmercapto]-s-triazolo(4,3-a)quinoline], with 8.56 mg/kg; and `Cc1cc2ccccc2n2c(SCCCN3CCN(c4cccc(C(F)(F)F)c4)CC3)nnc12` [Example 59, 1-[3-(4-(3-Trifluoromethylphenyl)piperazin-1-yl)propylmercapto]-4-methyl-s-triazolo(4,3-a)quinoline], with 14.1 mg/kg; and `Cc1cc2nnc(SCCN3CCN(c4ccc(F)cc4F)CC3)n2c2ccccc12` [Example 62, 1-[2-(4-(2,4-Difluorophenyl)piperazin-1-yl)ethylmercapto]-5-methyl-s-triazolo(4,3-a)quinoline], with 11 mg/kg.
On to `Cc1cc2ccccc2n2c(SCCN3CCN(c4cccc(C(F)(F)F)c4)CC3)nnc12` [Example 63, 1-[2-(4-(3-Trifluoromethylphenyl)piperazin-1-yl)ethylmercapto]-4-methyl-s-triazolo(4,3-a)quinoline], for which the ED50 turned out to be 8.17 mg/kg.
Same read-out and setting: then `Cc1cc2ccccc2n2c(SCCCN3CCN(c4ccc(F)cc4F)CC3)nnc12` [Example 66, 1-[3-(4-(2,4-Difluorophenyl)piperazin-1-yl)propylmercapto]-4-methyl-s-triazolo(4,3-a)quinoline], with 17.9 mg/kg.
